In one test the target is T1, JAK3 (Homo sapiens, UniProt P52333).
T1 construct: purchased INVITROGEN (Select Screening assay service)
T1 sequence (P52333 1-1124): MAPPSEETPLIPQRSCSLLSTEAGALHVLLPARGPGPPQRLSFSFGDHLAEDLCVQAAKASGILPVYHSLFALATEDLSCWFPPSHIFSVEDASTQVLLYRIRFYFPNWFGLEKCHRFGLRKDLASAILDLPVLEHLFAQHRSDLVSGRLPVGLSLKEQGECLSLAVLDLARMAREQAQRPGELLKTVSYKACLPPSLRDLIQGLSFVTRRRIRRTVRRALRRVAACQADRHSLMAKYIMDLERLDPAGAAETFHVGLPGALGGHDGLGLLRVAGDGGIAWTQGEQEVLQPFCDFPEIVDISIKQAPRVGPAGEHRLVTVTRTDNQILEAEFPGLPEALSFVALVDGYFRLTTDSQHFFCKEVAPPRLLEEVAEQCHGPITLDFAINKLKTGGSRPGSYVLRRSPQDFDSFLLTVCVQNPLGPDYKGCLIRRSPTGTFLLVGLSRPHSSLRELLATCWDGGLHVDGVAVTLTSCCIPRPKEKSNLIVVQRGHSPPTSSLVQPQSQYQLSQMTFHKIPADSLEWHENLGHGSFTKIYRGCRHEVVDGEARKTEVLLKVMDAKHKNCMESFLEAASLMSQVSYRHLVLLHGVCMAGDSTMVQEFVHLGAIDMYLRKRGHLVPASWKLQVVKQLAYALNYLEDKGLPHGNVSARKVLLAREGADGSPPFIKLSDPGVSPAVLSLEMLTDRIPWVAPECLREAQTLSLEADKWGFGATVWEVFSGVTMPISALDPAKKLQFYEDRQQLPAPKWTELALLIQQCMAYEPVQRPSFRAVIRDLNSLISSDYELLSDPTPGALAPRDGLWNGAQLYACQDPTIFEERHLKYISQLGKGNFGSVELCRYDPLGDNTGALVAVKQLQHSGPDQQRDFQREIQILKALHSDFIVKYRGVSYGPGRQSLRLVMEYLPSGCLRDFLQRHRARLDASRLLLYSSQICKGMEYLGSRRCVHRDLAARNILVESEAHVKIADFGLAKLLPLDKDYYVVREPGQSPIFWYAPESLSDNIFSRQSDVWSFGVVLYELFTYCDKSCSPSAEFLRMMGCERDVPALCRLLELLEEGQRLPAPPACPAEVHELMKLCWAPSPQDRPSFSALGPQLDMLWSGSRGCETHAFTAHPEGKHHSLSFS
Put plainly: INVITROGEN Select Screening assay, enzymatic IC50, JAK3. The test is classed as biochemical.

The target in the next test is T2, Ba/F3 TYK2 (Homo sapiens, UniProt P29597).
T2 construct: The likeliest candidate is TEL (ETV6) N-terminal oligomerisation domain fused to the TYK2 kinase domain; BCR, another partner, or no partner are also possible
T2 sequence (P29597 whole entry, change not shown, the tested form may be a part): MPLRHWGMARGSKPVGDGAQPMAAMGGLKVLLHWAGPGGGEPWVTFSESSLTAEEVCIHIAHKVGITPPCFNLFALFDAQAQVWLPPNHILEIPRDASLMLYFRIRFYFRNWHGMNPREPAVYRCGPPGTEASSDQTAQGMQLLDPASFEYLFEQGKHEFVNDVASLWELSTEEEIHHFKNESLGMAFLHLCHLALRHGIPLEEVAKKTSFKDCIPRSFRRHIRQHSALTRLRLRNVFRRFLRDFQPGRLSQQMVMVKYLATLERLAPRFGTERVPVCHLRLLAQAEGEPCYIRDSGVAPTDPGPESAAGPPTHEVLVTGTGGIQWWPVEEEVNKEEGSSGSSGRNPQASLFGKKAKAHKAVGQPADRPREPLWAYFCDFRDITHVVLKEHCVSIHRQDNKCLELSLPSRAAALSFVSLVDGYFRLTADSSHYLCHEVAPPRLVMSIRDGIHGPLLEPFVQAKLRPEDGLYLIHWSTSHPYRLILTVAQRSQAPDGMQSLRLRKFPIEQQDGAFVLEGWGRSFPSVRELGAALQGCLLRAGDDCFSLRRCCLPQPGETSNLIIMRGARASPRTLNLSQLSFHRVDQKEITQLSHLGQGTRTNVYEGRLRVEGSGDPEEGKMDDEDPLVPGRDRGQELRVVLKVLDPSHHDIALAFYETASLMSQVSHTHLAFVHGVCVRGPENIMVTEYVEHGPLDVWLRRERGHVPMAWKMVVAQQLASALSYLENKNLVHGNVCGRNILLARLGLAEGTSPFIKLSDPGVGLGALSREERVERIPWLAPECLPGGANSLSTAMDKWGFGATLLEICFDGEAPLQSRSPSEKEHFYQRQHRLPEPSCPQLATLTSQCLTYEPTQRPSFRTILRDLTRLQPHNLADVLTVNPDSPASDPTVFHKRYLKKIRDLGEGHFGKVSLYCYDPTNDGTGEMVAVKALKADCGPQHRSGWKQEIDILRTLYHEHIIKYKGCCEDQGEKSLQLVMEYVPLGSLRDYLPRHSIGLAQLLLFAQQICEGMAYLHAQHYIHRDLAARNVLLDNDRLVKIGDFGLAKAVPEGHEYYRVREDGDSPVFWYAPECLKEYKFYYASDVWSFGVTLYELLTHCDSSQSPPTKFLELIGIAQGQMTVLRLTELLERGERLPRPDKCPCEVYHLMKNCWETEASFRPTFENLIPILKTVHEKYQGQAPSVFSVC
Nature of the test: CellTiter-Glo cell proliferation, Ba/F3 TYK2. The test is classed as cell-based, murine. The settings on record: 72 hours; read-out: Ba/F3 IC50 TYK2. A general note: ATP-based viability assays read luminescence as a measure of living cells.

The next test has as its target T3, Ba/F3 JAK2 (Homo sapiens, UniProt O60674).
T3 construct: candidate: TEL (ETV6) N-terminal oligomerisation domain
Nature of the test: CellTiter-Glo cell proliferation, Ba/F3 JAK2. It counts as cell-based, murine. Particulars: 72 hours; read-out: Ba/F3 IC50 JAK2.

In the next test the target is T4, Ba/F3 JAK3 (Homo sapiens, UniProt P52333).
T4 construct: candidate: TEL (ETV6) N-terminal oligomerisation domain
T4 sequence (P52333 1-1124): T1 sequence (P52333 1-1124)
Put plainly: CellTiter-Glo cell proliferation, Ba/F3 JAK3. The test is classed as cell-based, murine. Particulars: 72 hours; read-out: Ba/F3 IC50 JAK3.

The next test has as its target T5, Ba/F3 JAK1 (Homo sapiens, UniProt P23458).
T5 construct: candidate: TEL (ETV6) N-terminal oligomerisation domain
Nature of the test: CellTiter-Glo cell proliferation, Ba/F3 JAK1. The test is classed as cell-based, murine. The settings on record: 72 hours; read-out: Ba/F3 IC50 JAK1.

For a further test, the target named is T6, Ba/F3 ABL (Homo sapiens, UniProt P00519).
T6 construct: candidates: BCR or TEL (ETV6)
T6 sequence (P00519 whole entry, change not shown): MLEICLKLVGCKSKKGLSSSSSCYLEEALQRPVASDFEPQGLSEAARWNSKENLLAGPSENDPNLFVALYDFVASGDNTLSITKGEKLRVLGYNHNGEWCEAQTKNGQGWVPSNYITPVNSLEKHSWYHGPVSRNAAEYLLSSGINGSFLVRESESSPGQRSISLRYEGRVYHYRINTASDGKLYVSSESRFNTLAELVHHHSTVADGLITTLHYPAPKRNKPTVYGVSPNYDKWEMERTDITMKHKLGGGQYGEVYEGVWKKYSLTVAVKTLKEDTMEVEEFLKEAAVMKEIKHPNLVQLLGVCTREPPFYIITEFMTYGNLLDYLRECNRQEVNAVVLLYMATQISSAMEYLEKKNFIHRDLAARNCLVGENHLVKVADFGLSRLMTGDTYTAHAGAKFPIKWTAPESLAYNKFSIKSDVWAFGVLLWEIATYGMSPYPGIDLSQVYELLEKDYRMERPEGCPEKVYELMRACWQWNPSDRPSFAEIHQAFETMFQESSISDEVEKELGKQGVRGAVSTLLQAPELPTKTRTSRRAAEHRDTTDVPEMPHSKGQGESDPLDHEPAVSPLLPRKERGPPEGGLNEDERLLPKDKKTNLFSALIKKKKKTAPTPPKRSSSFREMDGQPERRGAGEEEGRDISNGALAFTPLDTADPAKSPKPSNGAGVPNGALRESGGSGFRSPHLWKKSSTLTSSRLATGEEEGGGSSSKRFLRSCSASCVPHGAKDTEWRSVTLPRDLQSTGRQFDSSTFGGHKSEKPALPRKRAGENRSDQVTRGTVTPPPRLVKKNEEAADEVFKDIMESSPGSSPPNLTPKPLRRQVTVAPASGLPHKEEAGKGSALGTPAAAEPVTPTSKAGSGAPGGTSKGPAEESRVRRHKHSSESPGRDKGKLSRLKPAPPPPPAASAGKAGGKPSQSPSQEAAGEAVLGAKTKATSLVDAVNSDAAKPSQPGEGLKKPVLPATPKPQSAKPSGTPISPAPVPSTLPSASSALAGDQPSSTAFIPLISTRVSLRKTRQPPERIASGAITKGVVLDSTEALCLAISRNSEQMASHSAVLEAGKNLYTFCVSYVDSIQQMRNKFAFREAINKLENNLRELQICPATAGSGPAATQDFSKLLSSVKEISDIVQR
Put plainly: CellTiter-Glo cell proliferation, Ba/F3 ABL. The test is classed as cell-based, murine. The settings on record: 72 hours; read-out: Ba/F3 IC50 ABL. As to the method: CellTiter-Glo® Luminescent cell viability assay (Promega) was used to assess cell survival following treatment with the compounds described herein. Cells were seeded into 384 well plates with the EL406 Combination Washer Dispenser (BioTek Instruments, Inc.), and the compounds were injected into the cells culture media with the JANUS Automated Workstation (PerkinElmer Inc.). Cells were treated with a series diluted inhibitors (20 to 0.04 μM) for 72 hours at 37° C. Luminescent measurement is performed using the 2104 Envision® Multilabel Reader (PerkinElmer Inc.). The cell lines employed include Ba/F3 (a murine interleukin-3 dependent pro-B cell line), NKL (a Natural Killer Cell Lymphoma (NKCL) cell line), CMK (an Acute Megakaryoblastic Leukemia (AMKL) cell line).

A further test concerns the target T7, AURKA (Homo sapiens, UniProt O14965).
T7 construct: purchased INVITROGEN (Select Screening assay service)
T7 sequence (O14965 1-403): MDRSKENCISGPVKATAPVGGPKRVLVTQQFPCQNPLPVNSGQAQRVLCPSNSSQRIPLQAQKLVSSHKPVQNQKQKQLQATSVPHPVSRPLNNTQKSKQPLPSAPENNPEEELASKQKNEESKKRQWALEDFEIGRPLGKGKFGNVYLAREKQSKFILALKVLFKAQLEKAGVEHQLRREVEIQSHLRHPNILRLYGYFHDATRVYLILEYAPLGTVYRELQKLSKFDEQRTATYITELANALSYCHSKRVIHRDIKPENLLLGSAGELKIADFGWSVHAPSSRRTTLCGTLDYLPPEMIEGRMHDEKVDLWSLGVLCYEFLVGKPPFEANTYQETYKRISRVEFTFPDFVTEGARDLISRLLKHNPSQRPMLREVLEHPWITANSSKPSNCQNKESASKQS
Nature of the test: INVITROGEN Select Screening assay, enzymatic IC50, AURKA. The test is classed as biochemical. From the text: (§1) The in vitro activity of the compounds described herein in inhibiting JAK3 and other kinases were obtained using an INVITROGEN Select Screening assay as known in the art.

A further test addresses T8, AURKB (Homo sapiens, UniProt Q96GD4).
T8 construct: purchased INVITROGEN (Select Screening assay service)
Nature of the test: INVITROGEN Select Screening assay, enzymatic IC50, AURKB. The test is classed as biochemical.
Description: as §1

Where only a bound is given, the exact number is not on record here.

T5 sequence (P23458 whole entry, change not shown, the tested form may be a part): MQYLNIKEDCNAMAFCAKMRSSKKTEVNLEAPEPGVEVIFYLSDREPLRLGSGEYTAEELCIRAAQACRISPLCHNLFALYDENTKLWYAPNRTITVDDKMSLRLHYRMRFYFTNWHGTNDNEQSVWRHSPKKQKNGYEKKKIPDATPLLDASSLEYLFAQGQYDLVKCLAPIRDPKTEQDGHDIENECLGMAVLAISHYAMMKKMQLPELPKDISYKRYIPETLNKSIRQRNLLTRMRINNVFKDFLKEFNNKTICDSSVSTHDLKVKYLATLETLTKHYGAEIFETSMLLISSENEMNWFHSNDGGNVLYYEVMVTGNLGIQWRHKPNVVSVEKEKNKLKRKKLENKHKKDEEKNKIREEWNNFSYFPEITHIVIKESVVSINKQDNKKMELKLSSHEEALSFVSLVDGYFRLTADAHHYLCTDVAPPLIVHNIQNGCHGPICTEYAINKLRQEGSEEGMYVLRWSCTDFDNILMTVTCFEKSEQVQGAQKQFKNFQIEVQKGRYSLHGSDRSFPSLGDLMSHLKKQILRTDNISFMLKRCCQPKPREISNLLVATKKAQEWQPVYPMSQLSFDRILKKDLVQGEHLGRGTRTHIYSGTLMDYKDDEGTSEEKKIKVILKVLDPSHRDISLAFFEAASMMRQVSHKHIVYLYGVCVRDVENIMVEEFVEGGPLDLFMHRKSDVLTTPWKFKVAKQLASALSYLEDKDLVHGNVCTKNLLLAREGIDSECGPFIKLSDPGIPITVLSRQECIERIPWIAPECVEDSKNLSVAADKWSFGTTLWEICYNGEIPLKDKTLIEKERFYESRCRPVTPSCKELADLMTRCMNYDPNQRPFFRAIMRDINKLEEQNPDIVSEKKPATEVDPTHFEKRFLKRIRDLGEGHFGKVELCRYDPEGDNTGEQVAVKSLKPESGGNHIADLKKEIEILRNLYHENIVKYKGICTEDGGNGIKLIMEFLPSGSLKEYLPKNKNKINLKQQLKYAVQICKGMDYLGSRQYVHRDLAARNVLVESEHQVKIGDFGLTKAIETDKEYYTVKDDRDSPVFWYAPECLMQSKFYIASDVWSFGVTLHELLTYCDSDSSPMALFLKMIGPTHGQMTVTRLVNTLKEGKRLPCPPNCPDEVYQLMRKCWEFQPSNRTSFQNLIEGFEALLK
T3 sequence (O60674 whole entry, change not shown, the tested form may be a part): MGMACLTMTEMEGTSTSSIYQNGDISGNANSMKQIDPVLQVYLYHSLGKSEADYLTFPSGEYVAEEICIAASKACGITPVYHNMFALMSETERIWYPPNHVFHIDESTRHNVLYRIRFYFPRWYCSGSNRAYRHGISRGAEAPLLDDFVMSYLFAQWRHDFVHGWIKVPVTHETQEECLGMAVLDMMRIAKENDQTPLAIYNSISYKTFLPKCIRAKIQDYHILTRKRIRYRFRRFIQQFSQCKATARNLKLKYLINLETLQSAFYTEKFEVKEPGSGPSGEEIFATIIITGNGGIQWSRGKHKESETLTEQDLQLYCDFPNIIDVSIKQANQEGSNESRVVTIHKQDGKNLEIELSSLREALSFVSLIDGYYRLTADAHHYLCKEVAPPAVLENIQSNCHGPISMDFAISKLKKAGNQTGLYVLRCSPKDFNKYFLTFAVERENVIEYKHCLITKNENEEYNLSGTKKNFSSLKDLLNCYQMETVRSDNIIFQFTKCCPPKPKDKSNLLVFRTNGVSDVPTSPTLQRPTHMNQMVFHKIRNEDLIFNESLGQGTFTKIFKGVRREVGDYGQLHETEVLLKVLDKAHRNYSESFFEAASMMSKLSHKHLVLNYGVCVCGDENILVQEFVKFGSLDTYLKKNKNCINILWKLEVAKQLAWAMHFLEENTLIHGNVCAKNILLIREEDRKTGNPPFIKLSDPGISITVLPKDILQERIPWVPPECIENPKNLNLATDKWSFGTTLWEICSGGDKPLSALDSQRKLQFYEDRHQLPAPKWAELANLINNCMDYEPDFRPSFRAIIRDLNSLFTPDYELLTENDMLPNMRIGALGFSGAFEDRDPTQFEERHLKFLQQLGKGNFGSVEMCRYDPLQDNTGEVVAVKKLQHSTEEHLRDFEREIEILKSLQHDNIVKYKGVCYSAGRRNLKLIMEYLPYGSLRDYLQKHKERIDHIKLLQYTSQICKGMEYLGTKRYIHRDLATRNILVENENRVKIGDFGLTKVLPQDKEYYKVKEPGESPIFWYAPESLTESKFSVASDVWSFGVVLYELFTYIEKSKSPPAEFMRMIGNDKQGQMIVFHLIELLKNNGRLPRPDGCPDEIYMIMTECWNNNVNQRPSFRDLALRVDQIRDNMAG
T8 sequence (Q96GD4 whole entry): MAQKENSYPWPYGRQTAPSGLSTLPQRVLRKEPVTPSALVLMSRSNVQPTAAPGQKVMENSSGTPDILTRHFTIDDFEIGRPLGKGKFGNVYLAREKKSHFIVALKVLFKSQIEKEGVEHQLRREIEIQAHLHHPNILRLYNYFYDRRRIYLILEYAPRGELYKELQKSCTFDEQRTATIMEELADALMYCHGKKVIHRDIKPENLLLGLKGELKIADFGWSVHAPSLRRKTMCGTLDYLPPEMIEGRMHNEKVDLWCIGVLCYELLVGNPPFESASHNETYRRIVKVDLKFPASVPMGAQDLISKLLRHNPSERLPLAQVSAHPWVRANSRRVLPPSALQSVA

What is called IC50 is the concentration that gives 50% inhibition. Read a low IC50 as inhibition by little substance. In turn, `C=CC(=O)Nc1ccc(CNc2nc(Nc3ccc(N4CCN(C)CC4)cc3OC)ncc2C(F)(F)F)cc1` [Compound 4] came in with an IC50 against JAK3 of 57.2 nM.
In the case of `C=CC(=O)Nc1cccc(CNc2cc(Nc3cnn(C)c3)ncn2)c1` [Compound 38], the GI50 at Ba/F3 TYK2 amounted to 78000 nM.
In the case of `C=CC(=O)Nc1cccc(CNc2nc(Nc3cc(F)c(C4CCOCC4)c(F)c3)ncc2Cl)c1` [Compound 50], the GI50 at Ba/F3 TYK2 is more than 50000 nM; at Ba/F3 JAK2, more than 50000 nM; on Ba/F3 JAK3, 100 nM; on Ba/F3 JAK1, more than 50000 nM; at Ba/F3 ABL, more than 50000 nM. Also, 20.5 nM corresponded to half-maximal inhibition against JAK3 (IC50).
Consider `C=CC(=O)Nc1cccc(CNc2nc(Nc3cc(Cl)c(C4CCOCC4)c(Cl)c3)ncc2Cl)c1` [Compound 45], for which the IC50 against JAK3 was found to be 100 nM.
On JAK3, `CCC(=O)Nc1ccc(CNc2nc(Nc3ccc(N4CCN(C)CC4)cc3OC)ncc2Cl)cc1` [Compound 5] gave a 50% inhibitory concentration (IC50) of 5420 nM.
For the compound `C=CC(=O)Nc1cccc(CNc2nc(Nc3cnn(CCOCCOCCOCCNC(=O)CCCC[C@@H]4SC[C@@H]5NC(=O)N[C@@H]54)c3)ncc2Cl)c1` [Compound 93], the GI50 is 15400 nM at Ba/F3 TYK2, more than 50000 nM at Ba/F3 JAK2, 18700 nM on Ba/F3 JAK1 and more than 50000 nM at Ba/F3 ABL.
Regarding `C=CC(=O)Nc1ccc(CNc2nc(Nc3ccc(N4CCN(C)CC4)cc3)ncc2Cl)cc1` [Compound 15], the GI50 on Ba/F3 TYK2 worked out at 144 nM; on Ba/F3 JAK2, 200 nM; at Ba/F3 JAK3, 10.6 nM; at Ba/F3 JAK1, 172 nM; at Ba/F3 ABL, 158 nM. Besides, the IC50 on JAK3 worked out at 0.689 nM.
As for `C=CC(=O)Nc1cccc(CN2C(=O)N(C)Cc3cnc(Nc4cnn(C)c4)nc32)c1` [Compound 43], the GI50 on Ba/F3 TYK2 was 50100 nM; on Ba/F3 JAK2, more than 50000 nM; at Ba/F3 JAK3, 400 nM; on Ba/F3 JAK1, 14000 nM; on Ba/F3 ABL, more than 50000 nM. In addition, the IC50 against JAK3 came to 20.9 nM.
On to `C=CC(=O)Nc1ccc(CN2C(=O)NCc3cnc(Nc4ccc(N5CCN(C)CC5)cc4)nc32)cc1` [Compound 34], for which the GI50 at Ba/F3 TYK2 is 29500 nM; on Ba/F3 JAK2, 30100 nM; at Ba/F3 JAK3 it was 576 nM; on Ba/F3 JAK1 it was more than 10000 nM; on Ba/F3 ABL, 29200 nM. Moreover, the IC50 against JAK3 stood at 1.21 nM.
For the compound `C=CC(=O)Nc1cccc(CNc2cc(Nc3ccc(N4CCN(C)CC4)cc3OC)ncn2)c1` [Compound 25], the GI50 at Ba/F3 TYK2 is 1530 nM; at Ba/F3 JAK2, 2300 nM; at Ba/F3 JAK3, 246 nM; on Ba/F3 JAK1, 2880 nM; at Ba/F3 ABL it was 4550 nM. On JAK3, this compound came in with an IC50 of 15.3 nM.
Regarding `C=CC(=O)Nc1ccc(CNc2nc(Nc3ccc(N4CCOCC4)cc3)ncc2Cl)cc1` [Compound 13], the IC50 turned out to be 173 nM on AURKA and 835 nM against AURKB.
Regarding `C=CC(=O)Nc1ccc(CNc2nc(Nc3ccc(N4CCOCC4)c(F)c3)ncc2Cl)cc1` [Compound 14], the GI50 came out at 607 nM on Ba/F3 TYK2; 1870 nM at Ba/F3 JAK2; 30.5 nM on Ba/F3 JAK3; 1300 nM at Ba/F3 JAK1; 2520 nM at Ba/F3 ABL. In addition, the results for the IC50 at AURKA, against JAK3 and against AURKB were 279 nM, 3.5 nM and 1310 nM, respectively.
With `C=CC(=O)Nc1cccc(CN2CCc3cnc(Nc4cnn(C)c4)nc32)c1` [Compound 48], the GI50 at Ba/F3 TYK2 was 8850 nM; at Ba/F3 JAK2 it was 18100 nM; on Ba/F3 JAK3 it was more than 50000 nM; at Ba/F3 JAK1, 56400 nM; on Ba/F3 ABL, more than 50000 nM. For the same compound, on JAK3, it took 8040 nM to reach half-maximal inhibition (IC50).
Turning to `C=CC(=O)Nc1ccc(CNc2cc(Nc3ccc(N4CCN(C)CC4)cc3)ncn2)cc1` [Compound 32], the GI50 at Ba/F3 ABL was 22400 nM.
On JAK3, `C=CC(=O)Nc1cccc(CNc2nc(Nc3ccc(N4CCN(C)CC4)cc3OC)ncc2C2CC2)c1` [Compound 91] gave an IC50 of 220 nM.
Turning to `C=CC(=O)Nc1ccc(CN2C(=O)N(C)Cc3cnc(Nc4ccc(N5CCN(C)CC5)cc4)nc32)cc1` [Compound 35], the GI50 came out at 10100 nM at Ba/F3 TYK2; 14600 nM on Ba/F3 JAK2; 880 nM on Ba/F3 JAK3; 87600 nM on Ba/F3 JAK1; 8840 nM on Ba/F3 ABL. For the same compound, at JAK3, the IC50 came out at 30.4 nM.
For `C=CC(=O)Nc1cccc(CNc2nc(Nc3cc(OC)c(N4CCN(C)CC4)cc3OC)ncc2Cl)c1` [Compound 57], at JAK3, the IC50 worked out at 170 nM.
On the same count and under the same terms, under `C=CC(=O)Nc1ccc(CNc2nc(Nc3ccc(N4CCN(C)CC4)cc3OC)ncc2Br)cc1` [Compound 3] stands 33.2 nM.
For `C=CC(=O)Nc1ccc(CNc2nc(Nc3ccc(N4CCN(C)CC4)c(F)c3)ncc2Cl)cc1` [Compound 16], the GI50 at Ba/F3 TYK2 worked out at 284 nM; on Ba/F3 JAK2 it was 538 nM; at Ba/F3 JAK3 it was 17.8 nM; on Ba/F3 JAK1, 379 nM; on Ba/F3 ABL, 453 nM. This compound yielded an IC50 against JAK3 of 2.79 nM.

These data come from patent publication US10017477B2, “Janus kinase inhibitors and uses thereof” (Dana-Farber Cancer Institute, Inc., priority 2014, dated 2018).
